# Tests used:
# [1] = commercially available preparations, oral; cited from earlier work
# [2] = Chondroitin sulfate solubility in oils; assay type: physicochemical; settings: in codfish oil, corn oil and olive oil (from the flesh of the olive)
# Text: Parallel experiments with codfish oil, corn oil and olive oil (from the flesh of the olive) were comtemplated, but chondroitin sulfate solubility in these oils was insufficient to meet the requirements of the experiment.
# [3] = Effect of olive kernel extract on absorption of tritiated chondroitin sulfate in vivo (serum radioactivity after oral capsule); design: species or system male Sprague-Dawley rats; settings: serum radioactivity at 8 hours
# Experimental: Chondroitin sulfate was tritiated by New England Nuclear Corp. to a specific activity of 4.3 mCi/ml.
# Unlabeled chondroitin sulfate was dissolved in olive kernel extract at a ratio of about 55 w/v chondroitin sulfate powder to about 450 w/v of olive kernel extract (2.9% acidity as oleic acid, 1.03% water, 0.08% hexane). To this solution was added 20.2 microcuries of the labeled chondroitin sulfate. AAA gelatin capsules were filled with the resulting solution using an aluminum template molding device.
# The laboratory animals (250 g male Sprague-Dawley rats) were kept overnight without food but with free access to water. One capsule containg the above-described chondroitin sulfate-olive kernel extract solution was given to each rat per os. Control animals were given the equivalent amount of chondroitin, but without olive kernel extract. The animals were then given free access to food. Serum radioactivity was measured 8 hours thereafter in a beta scintillation counter.
substance,measurement,setting,value
chondroitin sulfate,chondroitin sulfate absorbed orally,[1],less than 5%
same,chondroitin sulfate solubility in oils,[2],insufficient
same,dose of labeled chondroitin sulfate that reached the circulation,"[3]; control rats, one capsule per os without olive kernel extract, n=3",about 3.9%+/−0.4%
same,dose of labeled chondroitin sulfate absorbed into the general circulation,"[3]; rats, one capsule per os of chondroitin sulfate dissolved in olive kernel extract, n=4",about 14.3%+/−0.7%
